Measurements taken from patent EP2610242A1, “Positively charged water-soluble prodrugs of aspirin” (Techfields Biochem Co. Ltd, priority 2006, dated 2008).
In brackets after ≈: the same amount, converted by molar mass. Like-named read-outs stand apart in the source and are kept apart here. Each block holds one compound with its values, some of them ahead of it.

Assays:
[1] = tested on: rats; assay: Acute toxicity, oral LD50; format: in vivo; settings: unit printed as g
Excerpt: (§1) The acute toxicity of the pro-drugs were investigated.

[2] = physchem
[3] = Solubility in water of the prepared product
[4] = tested on: mice; assay: Analgetic activity, acetic acid writhing test; format: in vivo; settings: for inhibition at 50 mg/kg / inhibition at 100 mg/kg: Mus musculus, po, read-out: % (rate of writhings inhibition)
Procedure: The number of writhings that occurred when mice were administered an acetic acid solution intraperitoneally were counted, and the rate of inhibition based on the control group was calculated. 42 mice were divided into 7 groups (6 mice each). Aspirin (ASA, 50 mg/kg and 100 g) was administered to groups B1 and B2 of mice and diethylaminoethyl acetylsalicylate.AcOH (DEAE-ASA, 50 mg and 100 mg/kg) was administered orally to groups C1 and C2. Diethylaminoethyl acetylsalicylate.AcOH (DEAE-ASA, 50 mg and 100 mg/kg) was administered transdermally to groups D1 and D2. The A group is the control group. The test compounds were administered to the mice 30 minutes before the acetic acid solution was administered.

[5] = tested on: rats; assay: Antipyretic activity, E. coli suspension as pyrogen, body temperature; format: in vivo; settings: for body temperature t=0 min / body temperature t=90 min / body temperature t=180 min. / body temperature t=270 min.: in °C (unit assumed)
Procedure: Antipyretic activity: Rats received a sterilized E. coli suspension as a pyrogen. 56 rats were divided into 7 groups. The control group is group A. 2 hours later, Aspirin (ASA, B1 for 100mg/kg and B2 for 150mg/kg) and diethylaminoethyl acetylsalicylate.AcOH (DEAE-ASA, C1 for 100mg/kg and C2 for 150 mg) were administered orally and diethylaminoethyl acetylsalicylate.AcOH (DEAE-ASA, D1 for 100 mg and D2 for 150 mg/kg) were administered transdermally. The body temperature of rats was taken at 90 min. intervals before and after the administration of the test compounds.

[6] = human, 20 % (suspension in the donor), pH 7.4
[7] = hairless, mouse, in vivo
[8] = tested on: rats; settings: rat, in vivo, po, 100 mg/kg/day, 21 days
[9] = cited from earlier work
[10] = physchem; settings: pH 7, aqueous buffer
[11] = Half-life in whole human blood
Excerpt: (§3) To determine how much the pro-drugs of acetylsalicylic acid were changed back to the drug itself or diethylaminoethyl salicylate, we diluted whole human blood 20 times with a pH 7.4 phosphate buffer (0.2M).

[12] = Acute toxicity, oral LD50; format: in vivo; settings: rat, in vivo, rats, read-out: LD50 orally in rats
Excerpt: as §1

[13] = tested on: mice; assay: Analgetic activity, prolongation of pain threshold of mouse tail (D'Amour-Smith Method); format: in vivo; settings: versus 200mg/kg aspirin, Figure 3
Procedure: Analgetic activity: The prolongation time of pain the threshold of a mouse tail was determined in accordance with the D'Amour-Smith Method (J. Pharmacol. Exp. Ther., 72, 74(1941)).
(§2) • Figure 1: Cumulative amounts of acetylsalicylic acid (ASA), ethyl acetylsalicylate(E-ASA), and diethylaminoethyl acetylsalicylate.AcOH(DEAE-ASA) crossing isolated human skin tissue in Franz cells (n=5). […] In each case, the vehicle was pH 7.4 phosphate buffer (0.2 M). • Figure 2: Total plasma levels of salicylic acid (SA) after topical application of 300 mg of acetylsalicylic acid (ASA) or diethylaminoethyl acetylsalicylate.AcOH (DEAE-ASA) to the backs of hairless mice (n=5). • Figure 3. […] A is the control line. • Figure 4. […] A is the control line.

[14] = tested on: rats; assay: Anti-inflammatory activity, carrageenin hind paw swelling; format: in vivo; settings: 50mg/kg, oral administration and transdermal administration, Figure 4
Procedure: Anti-inflammatory activity: 50 mg/kg of diethylaminoethyl acetylsalicylate.AcOH was administered orally or transdermally to rats and 50 mg/kg of aspirin was administered orally. 60 minutes later, a carrageenin solution was administered subcutaneously to the foot pads of the rats. The volume of the hind paw was measured at every hour after the administration of the carrageenin, and the rate of increase in the volume of the paw was calculated and designated as the rate of swelling(%).
as §2

[15] = Solubility in pH 7 phosphate buffer; settings: pH 7, aqueous buffer
[16] = tested on: rats; assay: Gastroduodenal bleeding (fecal blood) after 21 days of oral dosing; settings: 100 mg/kg per day orally for 21 days
[17] = In vitro penetration through human skin, modified Franz cells, HPLC
[18] = Conversion of pro-drug in whole human blood diluted 20 times with pH 7.4 phosphate buffer, HPLC; settings: whole human blood diluted 20 times with pH 7.4 phosphate buffer (0.2M)
Excerpt: as §3

[19] = In vivo penetration through the skin of intact hairless mice, plasma levels of salicylic acid by HPLC
[20] = 50 mg/kg, groups B1 (ASA) and C1 (DEAE-ASA orally), 30 minutes before acetic acid
[21] = 100 mg/kg, groups B2 (ASA) and C2 (DEAE-ASA orally), 30 minutes before acetic acid
[22] = 50 mg/kg, groups B1 (ASA) and C1 (DEAE-ASA orally)
[23] = 100 mg/kg, groups B2 (ASA) and C2 (DEAE-ASA orally)
[24] = 50 mg/kg transdermally, group D1
[25] = 100 mg/kg transdermally, group D2

Compound: CC(=O)Oc1ccccc1C(=O)OCCN(C)C [dimethylaminoethyl acetylsalicylate.AcOH]
LD50 orally in rats [1]: 2.2 g
solubility [2]: 350 mg/mL (≈ 1390 mM)

Solubility in water [3]: 280 mg/mL
Compound: S-diethylaminoethyl propionylthiosalicylate.AcOH

Apparent flux values [6]: 0.25 mg/cm^2/h
time to peak levels of salicylic acid in plasma after application of the donor systems [7]: ~20 min
average fecal blood [8]: 5 mg of fecal blood per gram of feces
solubility [10]: 10 µg/mL (≈ 0.0555 mM)
half-life [11]: 15 min
Compound: CC(=O)Oc1ccccc1C(=O)O [acetylsalicylic acid, reference compound]
No. of Writhings [4, 20]: 18.2
No. of Writhings [4, 21]: 13.2
inhibition at 50 mg/kg [4, 22]: 45%
inhibition at 100 mg/kg [4, 23]: 60%
body temperature t=0 min ([5]; 100mg/kg orally): 37.22±0.05
body temperature t=90 min ([5]; 100mg/kg orally): 36.80±0.05
body temperature t=180 min. ([5]; 100mg/kg orally): 36.85±0.05
body temperature t=270 min. ([5]; 100mg/kg orally): 36.81±0.05
body temperature t=0 min ([5]; 150mg/kg orally): 37.30±0.06
body temperature t=90 min ([5]; 150mg/kg orally): 36.50±0.05
body temperature t=180 min. ([5]; 150mg/kg orally): 36.59±0.05
body temperature t=270 min. ([5]; 150mg/kg orally): 36.55±0.05
half live in plasma [9]: ~15 min

solubility [3]: 320 mg/mL (≈ 1200 mM)
Compound: CC(=O)Oc1ccccc1C(=O)SCCN(C)C [S-dimethylaminoethyl acetylthiosalicylate.AcOH]

solubility [3]: 280 mg/mL (≈ 958 mM)
Compound: CCN(CC)CCCNC(=O)c1ccccc1OC(C)=O [N-diethylaminopropyl acetylsalicylamide.AcOH]

solubility [3]: 300 mg/mL (≈ 976 mM)
Compound: CCCN(CCC)CCOC(=O)c1ccccc1OC(C)=O [dipropylaminoethyl acetylsalicylate.AcOH]

solubility [3]: 350 mg/mL (≈ 1400 mM)
Compound: CC(=O)Oc1ccccc1C(=O)NCCN(C)C [N-dimethylaminoethyl acetylsalicylamide.AcOH]

peak plasma level of salicylic acid [7]: ~0.01 mg/mL
Compound: O=C(O)c1ccccc1O [salicylic acid]

Compound: CCN(CC)CCOC(=O)c1ccccc1OC(C)=O [diethylaminoethyl acetylsalicylate.AcOH]
LD50 [12]: 2300 mg/kg
analgetic activity (prolongation time of pain threshold) ([13]; 200 mg/kg orally (C)): stronger analgetic activity
analgetic activity (prolongation time of pain threshold) ([13]; 200 mg/kg transdermally (D)): stronger analgetic activity
% (rate of writhings inhibition) [4, 24]: 56%
No. of Writhings [4, 24]: 14.5
No. of Writhings [4, 20]: 15.4
% (rate of writhings inhibition) [4, 25]: 70%
No. of Writhings [4, 25]: 10.1
No. of Writhings [4, 21]: 11
inhibition at 50 mg/kg [4, 22]: 54%
inhibition at 100 mg/kg [4, 23]: 67%
analgetic activity compared with aspirin ([4]; writhing test, summary of Table 1): better analgetic activity than aspirin
antipyretic activity compared with aspirin ([5]; 100 mg/kg dose, summary of Table 2): some better than aspirin
body temperature t=0 min ([5]; 100mg/kg orally): 37.25±0.09
body temperature t=90 min ([5]; 100mg/kg orally): 36.40±0.15
body temperature t=180 min. ([5]; 100mg/kg orally): 36.50±0.09
body temperature t=270 min. ([5]; 100mg/kg orally): 36.40±0.15
body temperature t=0 min ([5]; 100mg/kg transdermally): 37.19±0.07
body temperature t=90 min ([5]; 100mg/kg transdermally): 36.40±0.05
body temperature t=180 min. ([5]; 100mg/kg transdermally): 36.38±0.05
body temperature t=270 min. ([5]; 100mg/kg transdermally): 36.40±0.15
body temperature t=0 min ([5]; 150mg/kg orally): 37.18±0.07
body temperature t=90 min ([5]; 150mg/kg orally): 36.30±0.15
body temperature t=180 min. ([5]; 150mg/kg orally): 36.28±0.07
body temperature t=270 min. ([5]; 150mg/kg orally): 36.20±0.09
body temperature t=0 min ([5]; 150mg/kg transdermally): 37.33±0.05
body temperature t=90 min ([5]; 150mg/kg transdermally): 36.27±0.15
body temperature t=180 min. ([5]; 150mg/kg transdermally): 36.26±0.07
body temperature t=270 min. ([5]; 150mg/kg transdermally): 36.22±0.08
antipyretic activity, transdermal versus oral administration ([5]; summary of Table 2): better than oral administration
Anti-inflammatory activity (rate of swelling) compared with aspirin [14]: better Anti-inflammatory activity than that of aspirin
half-life ([11]; blood): ~4 min
solubility [15]: > 300 mg/mL
solubility [3]: 300 mg/mL (≈ 1070 mM)
average fecal blood [16]: none
Apparent flux values ([17]; isolated human skin, Franz cells, donor 20% suspension or 20% solution in pH 7.4 phosphate buffer (0.2M)): 100 mg/cm^2/h
diffuses through human skin times faster than acetylsalicylic acid itself ([17]; ratio versus acetylsalicylic acid): ~400 times
diffuses through human skin times faster than ethyl acetylsalicylate ([17]; ratio versus ethyl acetylsalicylate): ~100 times
pro-drug changed back to the drug itself [18]: 80%
difference of peak plasma levels ([19]; pro-drug donor versus acetylsalicylic acid donor): approximately 100 times
peak plasma level of salicylic acid ([19]; topical, 30% in 1 mL isopropanol on 1 cm^2 of the back, hairless mice): ~10 mg/mL
peak plasma level times higher than the salicylate plasma level for effective analgesia ([19]; versus 0.15-0.3 mg/ml): 33-67 times
peak plasma level times higher than the salicylate plasma level for effective anti-inflammatory activity ([19]; versus 0.2-0.3 mg/ml): 33-50 times

Apparent flux values [6]: 1 mg/cm^2/h
penetration rate difference between ethyl acetylsalicylate and acetylsalicylic acid [6]: 4 times
Compound: CCOC(=O)c1ccccc1OC(C)=O [ethyl acetylsalicylate]
